Measurements: patent US20040147606A1, “Medicinal compositions” (priority 2001, published 2004)

What was measured:
goblet cells = test: Test for confirming synergetic expectorant effect: number of goblet cells in the air tube after intratracheal LPS; assay type: in vivo, Fischer (F334) rats; conditions: for Number of goblet cells: counted three days after LPS; for expectorant effect (number of goblet cells), result in words: summary of Table 1
Excerpt: Improvement of the expectorant effect by using fudosteine and an antipyretic/analgesic in combination was confirmed by the method described below. Seven 12-week-old male Fischer ([…]) rats for one group were used as test animals. The rats were anesthetized with pentobarbital and their skin was disinfected using the Isodine solution for surgery. The trachea of the rats was exposed by midline incision. The injection needle ([…], Hamilton) attached to a Hamilton injection syringe was inserted from the pharynx to inject lipopolysaccharide (LPS, 10 μg/500 μl) into the air tube. The samples of which the components and dose are shown in Table 1 were dissolved or suspended in a 0.5% CMC-Na solution. The solution or suspension was orally administered to the rats three times in total, specifically, 30 minutes before administering LPS, 24 hours after administering LPS, and 48 hours after administering LPS. Three days after administering LPS, the rats were bled to death by cutting the abdominal aorta under pentobarbital anesthesia. A part of the air tube and bronchial tube was removed and fixed with a 10% neutral buffered formalin solution. The fixed bronchial tube was embedded in paraffin according to a conventional method. The air tube was cut into slices in the cross-section. The slices were stained with alcian blue/PAS (AB/PAS). The AB/PAS stained samples of each air tube were microscopically examined to measure the number of goblet cells according to the reported procedure (Enviromn. Tixicol. Pharmacol., vol. 5, p. 173, 1998).

Wistar rats = test: Test for confirming synergetic antiinflammatory effect: carrageenan footpad edema; assay type: in vivo; conditions: for Edema ratio (%): four hours after carrageenan; for antiinflammatory effect, result in words: summary of Table 2
Protocol: Improvement on the antiinflammatory effect by using fudosteine and an antipyretic/analgesic in combination was confirmed by the method described below. Five five-week-old male Wistar rats for one group were used as test animals. The samples of which the components and dose are shown in Table 2 were dissolved or suspended in a 0.5% CMC-Na solution. The solution or suspension was orally administered to the rats once a day in five consecutive days. Two hours after the administration on the last administration day, 0.1 ml of an inflammatory (carrageenan) was hypodermically injected into the right hind footpad of the rats. The limb volume of the rats was measured four hours after injecting the inflammatory. The edema ratio was calculated based on the limb volume before injecting the inflammatory. The rats were coated with a licking prevention hood, followed by measuring the right hind limb volume using a plethysmometer (manufactured by Ugo Basile).

[1] = 100 mg/kg orally once a day for five days

Structure (SMILES)	Number of goblet cells (goblet cells; 100 mg/kg orally, three times)	Number of goblet cells (goblet cells; 200 mg/kg orally, three times)	expectorant effect (number of goblet cells), result in words (goblet cells)	Edema ratio (%) (Wistar rats; [1])	Edema ratio (%) (Wistar rats; 200 mg/kg orally once a day for five days)	antiinflammatory effect, result in words (Wistar rats)	Number of goblet cells (goblet cells; 30 mg/kg orally, three times (30 min before, 24 h and 48 h after LPS))	Number of goblet cells (goblet cells; 50 mg/kg orally, three times)	Edema ratio (%) (Wistar rats; 50 mg/kg orally once a day for five days)
CC(=O)Nc1ccc(O)cc1 [Acetaminophen, acetaminophen]	125.7 ± 2.4	122.9 ± 1.7	did not exhibit an expectorant effect	70.6 ± 0.68 %	60.6 ± 0.88 ^b) %	dose-dependent antiinflammatory effect	–	–	–
N[C@@H](CSCCCO)C(=O)O [Fudosteine, S-(3-hydroxypropyl)-L-cysteine]	–	–	exhibited an expectorant effect	–	–	–	75.7 ± 1.3	–	–
CC(C)Cc1ccc(C(C)C(=O)O)cc1 (centres unmarked) [Ibuprofen, ibuprofen]	124.3 ± 2.0	–	did not exhibit an expectorant effect	60.6 ± 0.79 ^a) %	–	dose-dependent antiinflammatory effect	–	124.9 ± 1.8	70.6 ± 0.89 %
